This note sets out measurements from PubChem BioAssay (NCI).

Holding throughout (test): NCI anticancer screen, dose series, 48 h
Experiment [1] has as its system BT-549 breast.
The subject of experiment [2] is CCRF-CEM leukemia.
Experiment [3] has as its system OVCAR-3 ovarian.
Experiment [4] deals with U251 CNS.
Experiment [5] deals with ACHN renal.
Experiment [6] concerns SNB-19 CNS.
The subject of experiment [7] is NCI-H226 lung.
Experiment [8] concerns NCI-H460 lung.
Experiment [9] has as its system OVCAR-5 ovarian.
The test system of experiment [10] is MALME-3M melanoma.

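Results reflect a 48-hour exposure of cells in 96-well plates to compound at five concentrations. TGI: concentration producing complete growth inhibition.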 Where a SMILES comes first, the peptide text is derived from it. The star is where a group is joined. Boc = CC(C)(C)OC(=O)* Some results are limits rather than exact numbers.

Turning to `Cc1cc2ccccc2n1CC(=O)N1CCCC1`, the TGI in experiment [1], in experiment [2], in experiment [3], in [4], in experiment [5] and in experiment [6] was > 100 µM throughout. The TGI in experiment [7], in experiment [8], in [9] and in experiment [10] was > 100 µM throughout.
`Cc1ccc(C)c(COCCOCn2cc(Br)c(N)nc2=O)c1`: the TGI in experiment [1], in experiment [2], in [3], in experiment [4], in experiment [5] and in experiment [6] was > 100 µM each time. In addition, the TGI in experiment [7], in experiment [8], in experiment [9] and in experiment [10] was > 100 µM each time.
For the compound `CCOC(=O)c1c2c(n(-c3ccc(OC)cc3)c1C)C(=O)C(=O)c1ccccc1-2`, the TGI in [1] is 4.32 µM; in experiment [2], > 100 µM; in experiment [3], 1.34 µM; in experiment [4], 2.63 µM; in experiment [5], 2.36 µM; in experiment [6] it was 19 µM. Besides, the TGI came out at 4.12 µM in [7], 5.36 µM in experiment [8], 3.46 µM in experiment [9] and 0.605 µM in [10].
With `O=c1c2ccccc2n2nnc3ccc(NCCCNCCNCCCNc4ccc5nnn6c7ccccc7c(=O)c4c56)c1c32`, the TGI was 18.9 µM in experiment [1]; > 50 µM in experiment [2]; 16.8 µM in [3]; > 18 µM in experiment [5]; 35.3 µM in experiment [6]; 0.99 µM in experiment [7]. In addition, the figures for the TGI in experiment [8], in experiment [9] and in [10] were 15.8 µM, 18.1 µM and > 50 µM, respectively.
As to `C=CC(C)(C)N[C@@H](C(=O)N1CCC[C@H]1c1nc(-c2nc(C(=O)OCC=C(C)C)c(C)o2)c(C)o1)C(C)C`, the TGI in [1] stood at 46.2 µM; in experiment [2], 41.8 µM; in experiment [3], 59.5 µM; in experiment [4] it was 45.1 µM; in experiment [5], 88.3 µM; in experiment [6] it was 55 µM. In addition, the TGI in experiment [7] is 35.6 µM; in experiment [8], 51.1 µM; in [9] it was > 100 µM; in [10], 39 µM.
For `CC1(C)CN(c2ccccc2)C(=O)C1OC(=O)[C@@]1(C)C[C@@H]2C=C[C@H]1C2` (stereo partly drawn), the TGI in experiment [1] was 82.5 µM; in experiment [2], 81.4 µM; in experiment [3], > 100 µM; in [4], 43.9 µM; in experiment [5], > 100 µM; in experiment [6], 65.5 µM. The TGI in [7] worked out at 53.6 µM; in experiment [8], 55 µM; in experiment [9], 56.6 µM; in experiment [10], 28.3 µM.
For `O=C(Nc1nnc(-c2ccccc2)o1)C(SC(=S)N1CCOCC1)c1ccccc1` (stereo not drawn), the TGI is > 100 µM in experiment [1]; > 100 µM in [2]; 79.7 µM in experiment [3]; > 100 µM in experiment [4]; > 100 µM in [5]; > 100 µM in [6]. The TGI in experiment [7] was > 100 µM; in experiment [8], 66.1 µM; in experiment [9], 88.8 µM; in experiment [10], > 100 µM.
In the case of `O=C(Nc1c(Cl)cc([N+](=O)[O-])cc1Cl)C(=O)C1C(=O)NC(=S)NC1=O`, the TGI in [1], in [2], in [3], in experiment [4], in experiment [5] and in [6] was > 100 µM each time. Moreover, the TGI in [7], in [8], in experiment [9] and in experiment [10] was > 100 µM throughout.
`CCCC(CC)c1c(O)c(O)c(C(CC)CCC)c(C(CC)CCC)c1C(CC)CCC` (stereo not drawn): the TGI in experiment [1], in [2], in experiment [3], in experiment [4], in experiment [5] and in [6] was > 10 µM in each case. The TGI in experiment [7], in experiment [8], in experiment [9] and in experiment [10] was > 10 µM in each case.
As to `CN(C)CCOC(=O)c1ccc(N)cc1`, the TGI in [1] is > 100 µM; in experiment [2] it was 69.8 µM; in experiment [3], > 100 µM; in experiment [4] it was > 100 µM; in [5], > 100 µM; in experiment [6] it was > 100 µM. For the same compound, the TGI in experiment [7] is 67.4 µM; in experiment [8], > 100 µM; in experiment [9], > 100 µM; in experiment [10], > 100 µM.
Regarding `O=c1[nH]c2ccccc2nc1/C=C(\O)C(F)F`, the TGI in experiment [1], in experiment [2], in experiment [3], in experiment [4], in experiment [5] and in experiment [6] was > 100 µM each time. The TGI in experiment [7], in [8], in experiment [9] and in experiment [10] was > 100 µM throughout.
With `COC(=O)C(Cc1c[nH]c2ccccc12)NC(=O)C(Cc1c[nH]c2ccccc12)NC(=O)C(Cc1c[nH]c2ccccc12)NC(=O)C(Cc1c[nH]c2ccccc12)NC(=O)OC(C)(C)C` (stereo not drawn) (Boc-WWWW-OMe; configuration not given here), the TGI is 70.2 µM in experiment [1]; 34.3 µM in experiment [2]; 40.2 µM in experiment [3]; 34.6 µM in [4]; > 100 µM in experiment [5]; > 100 µM in experiment [6]. In addition, the TGI in experiment [7], in [8], in experiment [9] and in experiment [10] was > 100 µM each time.
Take `O=C(/C=C/c1ccc(-c2ccccc2)cc1)NCc1ccc(C(=O)NCCc2c[nH]c3ccccc23)cc1`: the TGI in experiment [1] is > 100 µM; in experiment [2] it was 32.1 µM; in experiment [3] it was 92.6 µM; in [4], > 100 µM; in experiment [5], > 100 µM; in experiment [6], 53.6 µM. The TGI in experiment [7] was 60.1 µM; in [8] it was > 100 µM; in experiment [9], 66.6 µM; in [10], > 100 µM.
On to `C=CCN(c1cc(OCc2ccccc2)c(NC(C)=O)cc1[N+](=O)[O-])S(C)(=O)=O`, for which the TGI in [1] was 93.3 µM; in [2], > 100 µM; in experiment [3], > 100 µM; in [5], > 100 µM; in experiment [6], 36.1 µM; in [7], 25.2 µM. Moreover, the TGI in experiment [8] is > 100 µM; in experiment [9], > 100 µM; in experiment [10], 73.2 µM.
For `O=C1OC2(C(F)(F)F)Oc3ccccc3CN2C12CCCCC2` (stereo not drawn), the TGI in experiment [1] was > 100 µM; in [2] it was 62.7 µM; in experiment [3], > 100 µM; in experiment [4], 84.4 µM; in experiment [5], 38.1 µM; in [6] it was > 100 µM. Moreover, the TGI in [7] was 90.8 µM; in [8] it was 66.4 µM; in [9], > 100 µM; in experiment [10], 53.2 µM.
For the compound `Cc1ccc(NC(=S)Nc2c(C)n(C)n(-c3ccccc3)c2=O)cc1`, the TGI in experiment [1], in [2], in experiment [3], in experiment [4], in experiment [5] and in experiment [6] was > 100 µM each time. In addition, the TGI in experiment [7], in experiment [8], in experiment [9] and in experiment [10] was > 100 µM each time.
As to `COCN1CCN=c2c1c1c3c(c4ccccc4n23)CCC1`, the TGI in [1], in experiment [2], in experiment [3], in experiment [4], in experiment [5] and in experiment [6] was > 100 µM each time. Also, the TGI in experiment [7], in [8], in experiment [9] and in experiment [10] was > 100 µM throughout.
As to `N#Cc1c(N2CCCC2)ncn(Cc2ccccc2)c1=S`, the TGI in experiment [1], in experiment [2], in experiment [3], in [4], in [5] and in [6] was > 100 µM in each case. In addition, the TGI in experiment [7], in experiment [8], in [9] and in experiment [10] was > 100 µM throughout.
As for `COc1ccc(/C=C2\CC3C4CC=C5C[C@@H](O)CC[C@]5(C)C4CC[C@]3(C)\C2=N\O)cc1OC` (stereo partly drawn), the TGI was > 100 µM in [1]; > 100 µM in experiment [2]; 8.74 µM in experiment [3]; > 100 µM in [4]; 36.9 µM in experiment [5]; > 100 µM in [6]. The TGI in experiment [7], in experiment [8], in [9] and in [10] was > 100 µM throughout.
Take `C=C1C(=O)O[C@H]2C/C(C)=C/CC/C(C)=C/CC[C@@](C)(O)[C@@H](I)C[C@@H]12`: the TGI is 6.62 µM in experiment [1]; 5.4 µM in experiment [2]; 24.9 µM in experiment [3]; 33.4 µM in experiment [4]; 21.5 µM in experiment [5]; 30 µM in [6]. Further, the TGI was determined as 12.2 µM in [7], 27.2 µM in [8], 30.2 µM in experiment [9] and 22.3 µM in [10].
As to `CO/C(=N\N=C\c1ccc(Cl)cc1Cl)c1ccncc1`, the TGI in experiment [1], in experiment [2], in experiment [3], in experiment [4], in experiment [5] and in experiment [6] was > 10 µM throughout. The TGI in [7], in experiment [8], in [9] and in [10] was > 10 µM throughout.
For `COc1ccc2c(c1)nc1n2C(N)=Nc2ccccc2S1`, the TGI is > 100 µM in [1]; > 23.3 µM in [2]; 67.8 µM in [3]; > 100 µM in experiment [4]; > 100 µM in experiment [5]; > 100 µM in experiment [6]. Further, the TGI in [7], in experiment [8], in [9] and in experiment [10] was > 100 µM throughout.
Regarding `Cc1cc(Nc2ccc(N=Nc3ccc(O)c4ncccc34)cc2)nc(C)n1`, the TGI is > 84.4 µM in [1]; 7.22 µM in [2]; > 29.5 µM in experiment [3]; 33.4 µM in [4]; > 77.9 µM in [5]; > 100 µM in experiment [6]. The TGI in [7] is 44.1 µM; in experiment [8], 38 µM; in experiment [9], > 87.9 µM; in [10], 44.6 µM.
Consider `O=C1CCCC2=C1C(c1ccc3c(c1)OCO3)Nc1ccc3ccccc3c12` (stereo not drawn), for which the TGI in experiment [1] was > 100 µM; in experiment [2], > 100 µM; in experiment [3], > 100 µM; in experiment [4], > 100 µM; in experiment [5], 65.7 µM; in [6] it was > 100 µM. In addition, the TGI in [7], in experiment [8], in experiment [9] and in experiment [10] was > 100 µM each time.
Regarding `Cc1cc(NS(=O)(=O)c2ccc(NC(=O)c3cccc4c(NNc5ccc(S(=O)(=O)N=C(N)N)cc5)c5ccccc5nc34)cc2)no1`, the TGI in [1] was > 100 µM; in experiment [2], 82.3 µM; in [3] it was > 100 µM; in experiment [4] it was 64.7 µM; in experiment [5], > 100 µM; in [6], > 100 µM. The TGI in [7] is 98.5 µM; in [8], > 100 µM; in [9], > 100 µM; in experiment [10], > 100 µM.
`CC(NC(=O)OCc1ccccc1)NC(=O)C(CC(=O)OC(C)(C)C)NC(=O)OC(C)(C)C` (stereo not drawn): the TGI in experiment [1], in experiment [2], in experiment [3], in experiment [4], in experiment [5] and in experiment [6] was > 100 µM in each case. Further, the TGI in experiment [7], in experiment [8], in experiment [9] and in experiment [10] was > 100 µM in each case.
